# Laboratory results: ChEMBL document CHEMBL5120867, “Hernandezine Regulates Proliferation and Autophagy-Induced Apoptosis in Melanoma Cells” (J Nat Prod, 2022)
# Activity calls are given as the source filed them. No cut-off for these calls is given here.
# Key:
# A-375 [1] = experiment: Induction of cell cycle arrest in human A-375 cells assessed as accumulation at G2/M phase at 7 uM incubated for 24 hrs by PI staining based flow cytometry analysis (reference value: 1.48 %); type: functional
# B16 [2] = experiment: Induction of cell cycle arrest in mouse B16 cells assessed as accumulation at G2/M phase incubated for 24 hrs by PI staining based flow cytometry analysis (reference value: 0.88 %); type: functional
# A-375 [3] = experiment: Induction of cell cycle arrest in human A-375 cells assessed as accumulation at S phase incubated for 24 hrs in presence of AG490 by PI staining based flow cytometry analysis (reference value: 34.44 %); type: functional
# A-375 [4] = experiment: Upregulation of p53 accumulation in human A-375 cells at 6 to 8 uM measured after 12 to 24 hrs by western blot assay; type: functional, cell-based; conditions: dose 6-8 µM, time 12-24 hrs
# A-375 [5] = experiment: Induction of apoptosis in human A-375 cells assessed as nuclear membrane lysis at 6 to 8 uM incubated for 24 hrs by Hoechst 33258 staining based fluorescence microscopy; type: functional, cell-based; conditions: dose 6-8 µM
# B16 [6] = experiment: Induction of apoptosis in mouse B16 cells assessed as nuclear membrane lysis at 5 to 7 uM incubated for 24 hrs by Hoechst 33258 staining based fluorescence microscopy; type: functional, cell-based; conditions: dose 5-7 µM
# A-375 [7] = experiment: Induction of apoptosis in human A-375 cells assessed as late apoptotic cells at 7 uM after 24 hrs by Annexin-V-FITC/PI-staining based flow cytometry (reference value: 5.7 %); type: functional
# A-375 [8] = experiment: Induction of autophagy in human A-375 cells assessed as increase in phosphorylated AMPK at 7 uM incubated for 6 to 24 hrs by Western blotting analysis; type: functional, cell-based; conditions: time 6-24 hrs
# A-375 [9] = experiment: Induction of apoptosis in human A-375 cells assessed as increase in cleaved caspase 9 expression at 6 to 8 uM incubated for 24 hrs by Western blot analysis; type: functional, cell-based; conditions: dose 6-8 µM
# B16 [10] = experiment: Induction of cell cycle arrest in mouse B16 cells assessed as accumulation at G2/M phase incubated for 24 hrs in presence of AG490 by PI staining based flow cytometry analysis (reference value: 0.88 %); type: functional
# A-375 [11] = experiment: Inhibition of autophagy in human A-375 cells harbouring mCherry-egfp-LC3 assessed as increase in proportion of autolysosome at 7 uM incubated for 8 to 24 hrs by laser scanning confocal microscopic analysis; type: functional, cell-based; conditions: time 8-24 hrs, TDE = time-dependent effect
# B16 [12] = experiment: Induction of cell cycle arrest in mouse B16 cells assessed as accumulation at G0/G1 phase at 6 uM incubated for 24 hrs by PI staining based flow cytometry analysis (reference value: 61.83 %); type: functional
# B16 [13] = experiment: Induction of cell cycle arrest in mouse B16 cells assessed as accumulation at S phase at 5 uM incubated for 24 hrs by PI staining based flow cytometry analysis (reference value: 33.46 %); type: functional
# B16 [14] = experiment: Induction of cell cycle arrest in mouse B16 cells assessed as accumulation at G2/M phase at 7 uM incubated for 24 hrs by PI staining based flow cytometry analysis (reference value: 4.70 %); type: functional
# A-375 [15] = experiment: Induction of autophagy in human A-375 cells assessed as decrease in LC3-I /LC3-II ratio at 7 uM incubated for 6 to 24 hrs by […]; type: functional, cell-based; conditions: time 6-24 hrs
# B16 [16] = experiment: Induction of apoptosis in mouse B16 cells assessed as cytoplasmic shrinkage at 5 to 7 uM incubated for 24 hrs by Hoechst 33258 staining based fluorescence microscopy; type: functional, cell-based; conditions: dose 5-7 µM
# B16 [17] = experiment: Induction of apoptosis in mouse B16 cells assessed as late apoptotic cells at 7 uM measured after 24 hrs by Annexin-V-FITC/PI-staining based flow cytometry (reference value: 4.4 %); type: functional
# A-375 [18] = experiment: Induction of apoptosis in human A-375 cells assessed as late apoptotic cells at 6 uM after 24 hrs by Annexin-V-FITC/PI-staining based flow cytometry (reference value: 5.7 %); type: functional
# A-375 [19] = experiment: Induction of cell cycle arrest in human A-375 cells assessed as accumulation at G0/G1 phase incubated for 24 hrs by PI staining based flow cytometry analysis (reference value: 56.69 %); type: functional
# [20] = molecular target: Signal transducer and activator of transcription 3 (Homo sapiens) (UniProt P40763); experiment: Inhibition of STAT3 phosphorylation in human A-375 cells assessed as decrease in phosphorylated STAT3 level at 6 to 8 uM measured after 12 to 24 hrs by Western blot analysis; type: cell-based; conditions: dose 6-8 µM, time 12-24 hrs
# Signal transducer and activator of transcription 3 (Homo sapiens), sequence (P40763 whole entry): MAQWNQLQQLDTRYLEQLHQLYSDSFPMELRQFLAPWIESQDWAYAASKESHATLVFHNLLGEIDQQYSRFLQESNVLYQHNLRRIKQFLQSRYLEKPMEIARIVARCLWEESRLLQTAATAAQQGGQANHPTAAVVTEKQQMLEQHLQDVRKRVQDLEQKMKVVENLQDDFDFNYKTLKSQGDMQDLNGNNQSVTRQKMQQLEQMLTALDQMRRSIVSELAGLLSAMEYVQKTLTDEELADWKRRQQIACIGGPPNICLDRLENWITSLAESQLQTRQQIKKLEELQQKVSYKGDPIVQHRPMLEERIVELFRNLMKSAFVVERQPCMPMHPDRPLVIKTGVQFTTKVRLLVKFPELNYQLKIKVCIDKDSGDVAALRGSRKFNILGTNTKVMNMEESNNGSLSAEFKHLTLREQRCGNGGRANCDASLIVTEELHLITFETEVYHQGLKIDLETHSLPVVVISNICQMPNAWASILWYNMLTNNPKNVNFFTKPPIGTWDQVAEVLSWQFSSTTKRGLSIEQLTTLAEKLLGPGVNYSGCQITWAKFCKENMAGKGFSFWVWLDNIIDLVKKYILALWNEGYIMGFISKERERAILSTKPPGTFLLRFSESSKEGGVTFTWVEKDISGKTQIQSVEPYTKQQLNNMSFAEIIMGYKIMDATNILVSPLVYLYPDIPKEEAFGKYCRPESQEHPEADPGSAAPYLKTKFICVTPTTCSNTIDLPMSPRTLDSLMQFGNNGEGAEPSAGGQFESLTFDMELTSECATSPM
# NCI-H1299 = experiment: Cytotoxicity against human NCI-H1299 cells assessed as reduction in cell viability by MTT assay; type: functional, cell-based
# B16 [21] = experiment: Induction of apoptosis in mouse B16 cells assessed as late apoptotic cells at 5 uM measured after 24 hrs by Annexin-V-FITC/PI-staining based flow cytometry (reference value: 4.4 %); type: functional
# B16 [22] = experiment: Induction of cell cycle arrest in mouse B16 cells assessed as accumulation at G0/G1 phase at 7 uM incubated for 24 hrs by PI staining based flow cytometry analysis (reference value: 61.83 %); type: functional
# A-375 [23] = experiment: Induction of apoptosis in human A-375 cells assessed as […] of Bax/Mcl-1 protein level at 6 to 8 uM incubated for 24 hrs by Western blot analysis; type: functional, cell-based; conditions: dose 6-8 µM
# A-375 [24] = experiment: Induction of apoptosis in human A-375 cells assessed as cytoplasmic shrinkage at 6 to 8 uM incubated for 24 hrs by Hoechst 33258 staining based fluorescence microscopy; type: functional, cell-based; conditions: dose 6-8 µM
# B16 [25] = experiment: Induction of cell cycle arrest in mouse B16 cells assessed as accumulation at G2/M phase at 5 uM incubated for 24 hrs by PI staining based flow cytometry analysis (reference value: 4.70 %); type: functional
structure (smiles),measurement,setting,value
COc1ccc2cc1Oc1ccc(cc1)C[C@H]1c3cc(c(OC)cc3CCN1C)Oc1c(OC)c(OC)c(OC)c3c1[C@H](C2)N(C)CC3 [HERNANDEZINE],Activity,A-375 [1],6.77%
same,Activity,B16 [2],8.78%
same,Activity,A-375 [3],24.36%
same,Activity,A-375 [4],Active
same,Activity,A-375 [5],Active
same,Activity,B16 [6],Active
same,Activity,A-375 [7],47%
same,Activity,A-375 [8],Active
same,Activity,A-375 [9],Active
same,Activity,B16 [10],8.47%
same,inhibition,A-375 [11],Tde
same,Activity,B16 [12],72.89%
same,Activity,B16 [13],23.42%
same,Activity,B16 [14],2.98%
same,Activity,A-375 [15],Active
same,Activity,B16 [16],Active
same,Activity,B16 [17],25.8%
same,Activity,A-375 [18],18.9%
same,Activity,A-375 [19],63.87%
same,inhibition,[20],Active
same,IC50,NCI-H1299,6.74 µM
same,Activity,B16 [21],17.8%
same,Activity,B16 [22],76.38%
same,Activity,A-375 [23],Active
same,Activity,A-375 [24],Active
same,Activity,B16 [25],4.58%
